Positions count from the first letter of the chain named. Where two headings read alike, the source gives them in different places.
Experiments:
[1] = biological target: T1, Androgen Receptor (AR) protein expression (Homo sapiens, UniProt P10275, T878A); experiment: Western Blot analysis of AR protein expression in LNCaP cells; format: cell-based
T1 sequence (P10275 1-920 T878A): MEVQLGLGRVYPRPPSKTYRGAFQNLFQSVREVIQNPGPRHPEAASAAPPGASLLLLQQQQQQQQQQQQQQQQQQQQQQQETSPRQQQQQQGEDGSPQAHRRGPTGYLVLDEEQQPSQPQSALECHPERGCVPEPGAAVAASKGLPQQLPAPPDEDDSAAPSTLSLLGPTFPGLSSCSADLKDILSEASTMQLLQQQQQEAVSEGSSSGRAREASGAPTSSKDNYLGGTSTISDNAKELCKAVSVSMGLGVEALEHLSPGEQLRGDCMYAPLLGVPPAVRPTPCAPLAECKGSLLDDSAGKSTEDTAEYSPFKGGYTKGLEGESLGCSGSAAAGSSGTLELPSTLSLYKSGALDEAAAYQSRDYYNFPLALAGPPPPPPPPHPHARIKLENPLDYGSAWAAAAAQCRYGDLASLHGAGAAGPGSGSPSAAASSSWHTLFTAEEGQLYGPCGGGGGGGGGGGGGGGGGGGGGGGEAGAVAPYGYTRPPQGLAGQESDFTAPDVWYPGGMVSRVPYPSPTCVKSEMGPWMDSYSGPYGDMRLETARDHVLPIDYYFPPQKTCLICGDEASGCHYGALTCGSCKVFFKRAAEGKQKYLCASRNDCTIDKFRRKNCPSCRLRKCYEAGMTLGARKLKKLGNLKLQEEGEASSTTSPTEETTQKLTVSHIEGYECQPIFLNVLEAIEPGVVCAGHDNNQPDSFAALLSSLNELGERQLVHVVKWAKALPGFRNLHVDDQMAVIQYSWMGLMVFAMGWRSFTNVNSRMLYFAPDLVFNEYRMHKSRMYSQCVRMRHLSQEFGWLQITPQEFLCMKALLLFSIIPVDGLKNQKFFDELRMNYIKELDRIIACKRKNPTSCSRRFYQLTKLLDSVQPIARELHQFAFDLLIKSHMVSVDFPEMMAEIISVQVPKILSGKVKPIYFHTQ

[2] = biological target: T2, Androgen Receptor (AR) protein expression (Homo sapiens, UniProt P10275, H875Y, form not given); experiment: Western Blot analysis of AR protein expression in CWR22Rv1 cells; settings: for IC50: read-out: Reduction of AR expression IC50 (μM) 24 h, Western blotting, 24 h post-incubation
T2 sequence (P10275 1-920 H875Y): T1 sequence (P10275 1-920 T878A) with H875Y, A878T

[3] = test system: CWR22Rv1 cells (human prostate cancer); experiment: MTT cell growth assay, CWR22Rv1 cells; format: cell-based; settings: 5 days, read-out: Inhibition of Tumor cells growth IC50
Description: The MTT cell proliferation assay was applied in the present invention to detect the capability of compounds to suppress or inhibit prostate cancer cells growth. […] Briefly, 1×10^3 LNCaP or CWR22Rv1 cells suspended in complete medium were plated into each well of a 96-well Microtest III tissue culture plate (Falcon, N.J.). Two days later, the medium was replaced with RPMI-1640 medium containing 10% charcoal/dextran-deprived FBS (hormone-deprived fetal bovine serum). Testing compounds were added to the medium at indicated concentrations with or without 1 nM DHT and cells were cultured for 5 days in an incubator (at 37° C.). MTT substrate solution (5 mg/ml in PBS) in 1/10 of volume was added to the cells in each well at 2 hours before harvesting. After 2 hour incubation, the plates were centrifuged (10 min at 1,000 rpm) and the supernatant from each well was carefully removed. A 100 μl of lysis buffer (50% dimethyl formamide, 5% sodium dodecyl sulphate, 0.35 M acetic acid, and 50 mM HCl) was added to each well to lyse the cells and dissolved tetrazolium in each well. The relative quantity of enzyme activity from each well was measured based on absorbance read at a wavelength of 450 nm using a Bio-RAD BenchMark microplate reader. Data derived from the MTT assay were also verified by the actual cell count and cell morphology on a separate plate set up in parallel.
For inhibition of tumor cell growth, in vitro, cells were growth in the presence of testing compounds for 5 days, and the cell growth was assayed by standard MTT assay.

AR protein = biological target: T3, AR protein (Homo sapiens, UniProt P10275, T878A); experiment: Cycloheximide chasing assay of AR degradation in LNCaP cells; format: cell-based; settings: in the presence of cycloheximide (CHX)
T3 sequence (P10275 1-920 T878A): T1 sequence (P10275 1-920 T878A)
Description: AR protein “degradation” in prostate cancer cells was measured by using cycloheximide (a protein synthesis inhibitor) chasing assay method. Briefly, LNCaP cells were incubated with testing ASC compound at the designated concentrations for 24 hours. Subsequently, cycloheximide was added to the cells at a concentration of 15 μg/ml to block new protein synthesis. After incubation, cells were harvested at designated time periods and the resultant change in AR protein levels were analysed using Western Blot analysis as described above.

[4] = Stability in acidic condition (0.1 N HCl, 37° C.); format: physicochemical
Description: (§1) Also, at 24 hr where stability of JM49 was only 4%, while its derivative Compound 6 had improved to 79%. Similar improvements in stability (from 6-24 hr) were also observed in the conditions of rat plasma (Table 4) and human plasma (Table 5).

[5] = Stability in human plasma; format: in vitro ADME; settings: 37° C.
Description: as §1

Stability in rat plasma = format: in vitro ADME; settings: 37° C.
Description: as §1

COc1ccc(/C=C/C(=O)C(C(=O)/C=C/c2ccc(OC)c(OC)c2)=C(O)/C=C/c2ccc(OC)c(OC)c2)cc1OC [ASC-JM4]
Reduction of AR expression (Western Blot, in words) [1]: capable of reducing endogenous AR expression
Reduction of AR expression (Western Blot, in words) [2]: capable of reducing endogenous AR expression

COc1ccc(C=CC(=O)C(CC2CCCC2)=C(O)C=Cc2ccc(OC)c(OC)c2)cc1OC [Compound 3]
IC50 [2]: 2.8 µM

COc1ccc(/C=C/C(=O)C(F)(CC(=O)N(C)C)C(=O)/C=C/c2ccc(OC)c(OC)c2)cc1OC [Compound 18]
IC50 ([3]; Homo sapiens, 120 h): > 7.5 µM

COc1ccc(C=CC(=O)C=C(O)C=Cc2ccc(OC)c(OC)c2)cc1OC [ASC-J9 ®, 1,7-Bis-(3,4-dimethoxy-phenyl)-5-hydroxy-hepta-1,4,6-trien-3-one, reference compound]
AR protein degradation (Western Blot, in words) (AR protein): enhances AR protein degradation

COc1ccc(/C=C/C(=O)C(C)(CC2CCC2)C(=O)/C=C/c2ccc(OC)c(OC)c2)cc1OC [Compound 2]
melting point: 161 to 162 °C

COc1ccc(/C=C/C(=O)C(C)(CC2CC2)C(=O)/C=C/c2ccc(OC)c(OC)c2)cc1OC [Compound 1]
IC50 ([3]; Homo sapiens, 120 h): 2.4 µM

COc1ccc(/C=C/C(=O)C(F)(CC2CC2)C(=O)/C=C/c2ccc(OC)c(OC)c2)cc1OC [Compound 13]
melting point: 104 to 105 °C

CCOC(=O)CCC(=O)C=Cc1ccc(O)c(OC)c1 [Monomer 6, 6-(4-Hydroxy-3-methoxy-phenyl)-4-oxo-hex-5-enoic acid ethyl ester]
melting point: 55 to 56 °C

CCCCC(F)(C(=O)C=Cc1ccc(OC)c(OC)c1)C(=O)C=Cc1ccc(OC)c(OC)c1 (centres unmarked) [Compound 19]
IC50 [3]: 4.7 µM
IC50 [2]: > 5 µM

COc1ccc(/C=C/C(=O)C(F)(CC2CCC2)C(=O)/C=C/c2ccc(OC)c(OC)c2)cc1OC [Compound 14]
melting point: 98 to 100 °C

CCN(CC)C(=O)CC(C)(C(=O)/C=C/c1ccc(OC)c(OC)c1)C(=O)/C=C/c1ccc(OC)c(OC)c1 [Compound 6]
Concentration change (%) in acidic condition ([4]; 0 h): 100%
Concentration change (%) in acidic condition ([4]; 2 h): 100%
Concentration change (%) in acidic condition ([4]; 4 h): 99%
Concentration change (%) in acidic condition ([4]; 24 h): 79%
Concentration change (%) in acidic condition ([4]; 48 h): 56%
Concentration change (%) in human plasma ([5]; 0 h): 100%
Concentration change (%) in human plasma ([5]; 6 h): 91%
Concentration change (%) in human plasma ([5]; 24 h): 54%
Concentration change (%) in human plasma ([5]; 48 h): 27%

COc1ccc(/C=C/C(=O)C(C)(CC(=O)N(C)C)C(=O)/C=C/c2ccc(OC)c(OC)c2)cc1OC [Compound 7]
Concentration change (%) in acidic condition ([4]; 0 h): 100%
Concentration change (%) in acidic condition ([4]; 1 h): 99%
Concentration change (%) in acidic condition ([4]; 2 h): 99%
Concentration change (%) in acidic condition ([4]; 4 h): 98%
Concentration change (%) in acidic condition ([4]; 24 h): 81%
Concentration change (%) in acidic condition ([4]; 48 h): 58%
Concentration change (%) in human plasma ([5]; 6 h): 95%
Concentration change (%) in human plasma ([5]; 24 h): 71%
Concentration change (%) in human plasma ([5]; 48 h): 49%

COc1ccc(/C=C/C(=O)C2CC(c3ccc(OC)c(OC)c3)(C(C(=O)/C=C/c3ccc(OC)c(OC)c3)C(=O)/C=C/c3ccc(OC)c(OC)c3)CC2=O)cc1OC (centres unmarked) [ASC-JM5]
AR protein degradation (Western Blot, in words) (AR protein): enhances AR protein degradation

COc1ccc(/C=C/C(=O)C(CC(=O)N(C)C)=C(O)/C=C/c2ccc(OC)c(OC)c2)cc1OC [JM77]
Concentration change (%) in acidic condition ([4]; 0 h): 100%
Concentration change (%) in acidic condition ([4]; 1 h): 14%
Concentration change (%) in acidic condition ([4]; 2 h): 8%
Concentration change (%) in acidic condition ([4]; 6 h): 0%
Concentration change (%) in acidic condition ([4]; 24 h): 0%
Concentration change (%) in human plasma ([5]; 0 h): 100%
Concentration change (%) in human plasma ([5]; 1 h): 88%
Concentration change (%) in human plasma ([5]; 2 h): 76%
Concentration change (%) in human plasma ([5]; 6 h): 45%
Concentration change (%) in human plasma ([5]; 24 h): 11%
Concentration change (%) in human plasma ([5]; 48 h): 1%
Concentration change (%) in rat plasma (Stability in rat plasma; 0 h): 100%
Concentration change (%) in rat plasma (Stability in rat plasma; 1 h): 93%
Concentration change (%) in rat plasma (Stability in rat plasma; 2 h): 88%
Concentration change (%) in rat plasma (Stability in rat plasma; 6 h): 73%
Concentration change (%) in rat plasma (Stability in rat plasma; 24 h): 27%
Concentration change (%) in rat plasma (Stability in rat plasma; 48 h): 7%

COc1ccc(/C=C/C(=O)C(C)(CC2CCCCC2)C(=O)/C=C/c2ccc(OC)c(OC)c2)cc1OC [Compound 5]
IC50 ([3]; Homo sapiens, 120 h): 4.6 µM
melting point: 128 to 129 °C

From US9259402B2, “Compounds with (1 E, 6E)-1,7-bis-(3,4-dimethoxyphenyI)-4,4-disubstituted-hepta-1,6-diene-3,5-dione structural scaffold, their biological activity, and uses thereof” (AndroScience Corporation, priority 2007, dated 2016)
